The results in this text go back to patent EP1501797B1, “3-(SUBSTITUTED AMINO)-1H-INDOLE-2-CARBOXYLIC ACID ESTER AND 3-(SUBSTITUTED AMINO)-BENZO[B]THIOPHENE-2-CARBOXYLIC ACID ESTER DERIVATIVES AS INTERLEUKIN-4 GENE EXPRESSION INHIBITORS” (Aventis Pharmaceuticals Inc., priority 2002, dated 2003).

By IC50 is commonly meant the concentration that gives 50% inhibition. As usually defined, the viability is a read-out of living cells in per cent, often relative to untreated cells. Usually ED50 stands for the midpoint of the dose-response relation.

One data set concerns IL-5. As to the kind of experiment: Human primary Th2 cells, anti-CD3/anti-CD28 activated, IL-5 ELISA. It counts as cell-based. As for the experimental part: Briefly, CD4^+CD45RA^+ T cells, isolated from donor peripheral blood mononuclear cells of healthy donors, are educated in the presence of anti-CD3/CD28 antibodies and various growth factors to obtain either a Thl-like or Th2-like phenotypes as determined by the known cytokine profiles of these two cell types.
Peripheral blood mononuclear cells (PBMC) are prepared from human blood by Ficoll-Hypacque (Pharmacia). The cells are washed two times in Hanks balanced salt solution (HBSS) and counted.
Naive T cells (CD4^+/CD45RA ) are prepared by negative selection method using following antibodies and Dynabeads: anti-CD8, anti-HLA-DR, (where HLA means human leucocyte antigen) anti-CD14, anti-CD16, anti-CD19, anti-CD45RO antibodies (all from R&D Systems, 1-2 µg/ml) are added to the cells, and the cells are kept on ice for 30 min. The cells are washed two times in HBSS, and goat anti- mouse Ig-beads, (bead:target ratio, 5:1) are added. The cells and beads are slowly rotated at 4°C for 20 min. (following the protocol supplied from Dynal). The supernatant is removed and fresh goat anti-mouse Ig-beads are added to the supernatant, which is slowly rotated at 4°C for 20 min. The cells are counted and phenotypically characterized by flow cytometric analysis.
CD4^+/CD45RA^+ cells at a density of 10^6/ml in RPMI, is prepared and added to RPMI medium containing 10% Hyclone serum/ glutamine and 1-2 µg/ml anti-CD28 Ab. The cells are split in two aliquots. For Th1 cells: anti-IL-4 Ab (1-2 µg/ml), IFN-γ (1 µg/ml, or 5000 units/ml) are added to the wells. For Th2 cells: IL-4 (100-200 ng/ml), anti-IFN-γ neutralizing Ab (1-2 µg/ml), anti-IL-12 neutralizing Ab (1-2 µg/ml) are added into the wells. […] The cells are transferred to fresh wells and grown in 200 units/ml IL-2 for 2 weeks by feeding them every other day with IL-2 containing medium and splitting the cultures 1:2 or 1:3 as needed. The degree of polarization is determined by intracellular staining of cells with anti-IFN-γ and anti-IL-4 antibodies from Pharmingen, and using flow cytometry from Becton Dickinson (BD), according to manufacturers description. The cells are stimulated with PHA and alloantigens at day 14 and 28 as described below. Eight days after the second allostimulation the cells can be used for compound screening or frozen for future use. For compound testing, large quantities of Th1 and Th2 cells derived from a given donor (NYTh1 and NYTh2) were expanded and frozen as aliquots in liquid nitrogen. The cells are thawed and cultured as and when needed. The thawed cells are stimulated with alloantigen/PHA combination. The cells are used for compound screening after 8-10 days in culture.
Re-stimulation by allogeneic cells: Human PBMCs, to be used as alloantigens, are isolated from freshly drawn blood by Ficoll separation. […] Cells are counted and diluted to a final concentration of 2 x 10^6/ml in medium containing 10 µg/ml PHA and 200 units/ml IL-2.
Ninetysix well Falcon tissue culture plates (Fisher Scientific) are coated with 100 microliters per well of 10 µg/ml anti-CD3 (PharMingen) antibody in phosphate buffered saline (PBS) and stored at 4°C one day before the experiment.
On the day of assay, anti-CD3 antibody coated plates are washed with PBS once to remove all soluble anti-CD3 antibody. […] All compounds and controls are assayed in triplicates.
(ELISA stands for enzyme-linked immunosorbent assay.)

A further data set in a line: in vitro. As to conditions: mouse, swiss 3t3 fibroblasts. Here is the method:
(§1) A third assay utilized in the present invention involves an in vitro cytotoxicity assay. This assay is used to further characterize the compounds in order to assess toxic activities of compounds on contact inhibited, non-dividing 3T3 fibroblasts. Other toxicity assays may be used.
(§2) Contact inhibited Swiss 3T3 fibroblasts are purchased from ATCC. The cells are maintained in 1640 RPMI supplemented with 10% fetal bovine serum (Gibco).
(§3) On day of assay, cells are detached from flasks by trypsinization, washed in medium and counted. 100 microliters of 2.5 x 10^4 cells per well are plated into Falcon brand 96 well tissue culture plates and cells incubated at 37°C in presence of 5% CO2 for 2 days or until confluent.
(§4) […] All compound dilutions are assayed in triplicate. […] Cells are returned to the incubator for 2 days.
(§5) After 2 day incubation, the 3T3 cells are assayed for viability using an MTS Assay Kit (Promega). Media is added to blank wells for background calculations. After 2 hours incubation in kit reagent, the optical density at 490 nm for each compound and control is determined by plate reader.
(§6) Results are expressed as percent cytotoxicity, i.e., (mean OD of compound wells - background OD)/ (mean OD of controls - background).
(§7) Note that starting concentration of CsA was 1 µM. […]

A further data set has as its system Swiss 3T3 fibroblasts. As to the kind of experiment: in vitro. Here is the method: as §1, §2, §3, §4, §5, §6, §7
For another data set, the system named is eosinophil. As to the kind of experiment: OVA-induced lung inflammation in Brown Norway rats, eosinophil influx into bronchoalveolar fluid. It counts as in vivo. As to conditions: Rattus norvegicus, ip, intraperitoneal injection, FIG. 2, read-out: ED50, inhibition of the influx of eosinophil. As for the experimental part: Rat model was very similar to the mouse models described earlier. Briefly, the lung inflammatory model described by Haczku et al. was used with minor modifications (Haczku A., et al., Immunology, (1996), 88, 247-251). Male Brown Norway rats, weighing 160-200 grams were sensitized with intraperitoneal injection of 1ml of a suspension containing ovalbumin (1 mg) and Al(OH)3 (100 mg) on days 1, 2 and 3. Three weeks later, the rats were treated with vehicle or drugs via intraperitoneal injections. One hour later, the rats were challenged with ovalbumin inhalation (1% solution, 10 mg/ml in sterilized saline) for 20 minutes in a 10 liter Plexiglas chamber which was connected to a DeVilbiss (Ultra-NEB®99) nebulizer with a carrier air flow of 1 liter/minute.
Results of dose response studies of 3-(4-pyridinylamino)-1H-indole-2-carboxylic acid on eosinophil influx into the bronchoalveolar fluid of ovalbumin sensitized and challenged Brown Norway rats are depicted as bar graphs in FIG. 2. Single dose of cyclosporin A (CsA) and dexamethasone (Dex) were also included as reference standards.

SMILES strings stand for the structures.

Consider `O=C(O)c1[nH]c2ccccc2c1Nc1ccncc1` [Example 28, 3-(4-Pyridinylamino)-1H-indole-2-carboxylic acid], for which the activity at 0.01 µM with IL-5 (Homo sapiens, 0.01 µM, 48 hr, read-out: IL-5 (% control) mean) was found to be 102%. Besides, the activity at 0.03 µM with IL-5 (Homo sapiens, 0.03 µM, 48 hr, read-out: IL-5 (% control) mean) was 85.2%. In addition, the activity at 0.1 µM in the data set with IL-5 (Homo sapiens, 0.1 µM, 48 hr, read-out: IL-5 (% control) mean) is 78.6%. Also, in the data set on IL-5 (Homo sapiens, 0.3 µM, 48 hr, read-out: IL-5 (% control) mean), the activity at 0.3 µM stood at 70.8%. In addition, in the data set on IL-5 (Homo sapiens, 1 µM, 48 hr, read-out: IL-5 (% control) mean), the activity at 1 µM is 70.7%. The activity at 3 µM in the data set on IL-5 (Homo sapiens, 3 µM, 48 hr, read-out: IL-5 (% control) mean) came out at 70.4%. In addition, in the data set on IL-5 (Homo sapiens, 10 µM, 48 hr, read-out: IL-5 (% control) mean), the activity at 10 µM was determined as 53.9%. The IC50 with IL-5 (Human primary Th2 cells, combined data from 10 different experiments) was approximately 10 µM. In addition, in the data set “in vitro”, the viability at 48 h, 0.001 µM worked out at 124%; the viability at 48 h, 0.01 µM was determined as 112%; the viability at 48 h, 0.03 µM turned out to be 111%; the viability at 48 h, 0.1 µM came out at 111%. For the same compound, in the data set “in vitro”, the viability at 48 h, 3 µM was 110% and the viability at 48 h, 10 µM amounted to 99.1%. Besides, in the data set on Swiss 3T3 fibroblasts, the “toxic effects on the viability of quiescent 3T3 cells (in words)” value is recorded as “no toxic effects”. For the same compound, the ED50 with eosinophil was 10.1 mg/kg.
